How the values were obtained:
Test in all cases: relative viability (nuclei count vs DMSO), 5 days (fraction); higher = more cells survive
[1] = compound: C1=CC=C2C(=C1)N=C(S2)C(C#N)C3=NC(=NC=C3)NCCC4=CN=CC=C4 + CC(=O)Nc1cccc(-n2c(=O)n(C3CC3)c(=O)c3c(Nc4ccc(I)cc4F)n(C)c(=O)c(C)c32)c1 [Trametinib] (partner 0.02 µM)
How it was run: (§1)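 Cells from lung cancer lines were seeded into 1536-well plates and, one day later, dosed by pin tool. Treatments were either a single drug or a fixed dose of an anchor drug with five library-drug doses (not always all listed) in √10 steps. After 5 days, nuclei were stained in a one-step fixation (final 0.05% Triton X-100, 1% formaldehyde, 1 ug/ml Hoechst) and counted on 4× images, and relative viability is the treated-to-vehicle nuclei ratio, as the median of duplicate plates.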

[2] = compound: COc1cc2/c(=N/c3ccc(Br)cc3F)nc[nH]c2cc1OCC1CCN(C)CC1 [Vandetanib] + CS(=O)(=O)CCNCc1ccc(-c2ccc3ncnc(Nc4ccc(OCc5cccc(F)c5)c(Cl)c4)c3c2)o1 [Lapatinib] (partner 2 µM)
How it was run: as §1

[3] = compound: COc1cc(N2CCC(N3CCN(C)CC3)CC2)ccc1Nc1ncc(Cl)c(Nc2ccccc2S(=O)(=O)C(C)C)n1 [NVP-TAE684] + CC(C)C[C@H](NC(=O)[C@H](Cc1ccccc1)NC(=O)c1cnccn1)B(O)O [Bortezomib] (partner 0.002 µM)
How it was run: as §1

[4] = compound: COc1cc(N2CCC(N3CCN(C)CC3)CC2)ccc1Nc1ncc(Cl)c(Nc2ccccc2S(=O)(=O)C(C)C)n1 [NVP-TAE684] + CS(=O)(=O)CCNCc1ccc(-c2ccc3ncnc(Nc4ccc(OCc5cccc(F)c5)c(Cl)c4)c3c2)o1 [Lapatinib] (partner 2 µM)
How it was run: as §1

| Cell Line | relative viability ([1]; first compound 0.005 µM) | relative viability ([1]; first compound 0.01581 µM) | relative viability ([1]; first compound 0.05 µM) | relative viability ([1]; first compound 0.1581 µM) | relative viability ([1]; first compound 0.5 µM) | relative viability ([2]; first compound 0.02 µM) | relative viability ([2]; first compound 0.06325 µM) | relative viability ([2]; first compound 0.2 µM) | relative viability ([2]; first compound 0.6325 µM) | relative viability ([2]; first compound 2 µM) | relative viability ([3]; first compound 0.2 µM) | relative viability ([3]; first compound 0.6325 µM) | relative viability ([3]; first compound 2 µM) | relative viability ([4]; first compound 0.2 µM) | relative viability ([4]; first compound 0.6325 µM) | relative viability ([4]; first compound 2 µM) |
| --- | --- | --- | --- | --- | --- | --- | --- | --- | --- | --- | --- | --- | --- | --- | --- | --- |
| 201T | 0.675 | 0.756 | 0.739 | 0.748 | 0.693 | 0.968 | 1.03 | 1.03 | 0.994 | 1.05 | 1.11 | 1.01 | 1.11 | 1.09 | 1.05 | 0.928 |
| A549 | – | – | – | – | – | 1.05 | 0.935 | 0.905 | 1.01 | 0.946 | – | – | – | 1.21 | – | 0.192 |
| A-427 | 0.882 | 0.714 | 0.683 | 0.81 | 0.804 | 0.968 | 1.02 | 1.14 | 1.01 | 0.74 | 1.1 | – | 0.78 | 1.12 | – | 0.922 |
| ABC-1 | – | – | – | – | – | 1.48 | 1.29 | 1.12 | 1.37 | 0.961 | 0.223 | 0.256 | 0.169 | 1.06 | 1.33 | 0.976 |
| BEN | 1.08 | 1.11 | 1.15 | 1.05 | 1.2 | 0.75 | 0.686 | 0.677 | 0.742 | 0.812 | 0.784 | 0.817 | 0.679 | 0.579 | 0.552 | 0.62 |
| CAL-12T | 0.278 | 0.327 | 0.395 | 0.34 | 0.384 | 0.704 | 0.611 | 0.701 | 0.726 | 0.749 | 0.974 | 0.645 | 0.366 | 0.666 | 0.471 | 0.305 |
| COR-L23 | 0.582 | 0.547 | 0.597 | 0.717 | 0.608 | 1.08 | 0.906 | 1.03 | 0.96 | 1.01 | – | 1.04 | 0.616 | 0.661 | 0.898 | 0.538 |
| COR-L 105 | 0.379 | 0.423 | 0.412 | 0.474 | 0.498 | 0.322 | 0.307 | 0.325 | 0.366 | 0.356 | 0.903 | 0.556 | 0.309 | 0.376 | 0.319 | 0.235 |
| Calu-6 | – | – | – | – | – | 1.08 | 0.966 | 1.12 | 0.94 | 1.07 | 0.875 | 0.918 | 0.435 | 1.31 | 0.94 | – |
| ChaGo-K-1 | 0.683 | 0.949 | 0.913 | 0.957 | 0.715 | – | – | – | – | – | 1.18 | 0.691 | 0.952 | – | – | – |
| EBC-1 | – | – | – | – | – | 0.212 | 0.204 | 0.19 | 0.211 | 0.183 | 0.515 | 0.544 | 0.341 | 0.221 | 0.223 | 0.192 |
| EKVX | 0.228 | 0.328 | 0.282 | 0.299 | 0.294 | 0.2 | 0.184 | 0.183 | 0.2 | 0.215 | 0.98 | 0.926 | 0.587 | 0.199 | 0.189 | 0.155 |
